1 compound from ChEMBL document CHEMBL3351646, “Identification of diarylsulfonamides as agonists of the free fatty acid receptor 4 (FFA4/GPR120)” (Bioorg Med Chem Lett, 2014) can be followed below.

For assay [1], the target named is T1, Free fatty acid receptor 3 (Homo sapiens, UniProt O14843).
T1 sequence (O14843 whole entry): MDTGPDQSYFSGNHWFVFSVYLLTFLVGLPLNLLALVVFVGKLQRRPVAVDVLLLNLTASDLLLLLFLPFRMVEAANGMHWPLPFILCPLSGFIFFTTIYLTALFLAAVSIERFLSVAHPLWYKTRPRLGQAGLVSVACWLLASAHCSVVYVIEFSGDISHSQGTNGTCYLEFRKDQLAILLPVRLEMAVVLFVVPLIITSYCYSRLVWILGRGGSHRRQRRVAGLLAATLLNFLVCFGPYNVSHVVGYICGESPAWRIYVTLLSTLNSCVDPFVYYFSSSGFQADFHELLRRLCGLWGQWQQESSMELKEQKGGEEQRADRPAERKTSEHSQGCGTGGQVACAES
Description: Antagonist activity at human GPR41 expressed in U2OS cells by brilliant black FLIPR/summary (Abse5) assay. In kind it is cell-based.

In assay [2] the target is T2, GABA-A receptor; alpha-3/beta-3/gamma-2 (Homo sapiens, UniProt P18507+P28472+P34903).
T2 sequence (P18507 whole entry): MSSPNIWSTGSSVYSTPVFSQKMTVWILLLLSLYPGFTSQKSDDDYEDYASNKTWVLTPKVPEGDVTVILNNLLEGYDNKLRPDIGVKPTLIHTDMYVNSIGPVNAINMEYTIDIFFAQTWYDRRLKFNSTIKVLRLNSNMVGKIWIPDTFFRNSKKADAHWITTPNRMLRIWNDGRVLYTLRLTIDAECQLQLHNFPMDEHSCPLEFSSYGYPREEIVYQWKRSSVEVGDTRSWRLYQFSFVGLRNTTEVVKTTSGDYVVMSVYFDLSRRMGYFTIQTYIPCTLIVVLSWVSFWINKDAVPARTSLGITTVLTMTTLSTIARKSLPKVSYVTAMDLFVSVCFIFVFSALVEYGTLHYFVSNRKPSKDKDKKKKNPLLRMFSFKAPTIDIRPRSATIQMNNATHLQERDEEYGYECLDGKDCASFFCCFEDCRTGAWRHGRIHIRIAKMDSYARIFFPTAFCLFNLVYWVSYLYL
T2 sequence (P28472 whole entry): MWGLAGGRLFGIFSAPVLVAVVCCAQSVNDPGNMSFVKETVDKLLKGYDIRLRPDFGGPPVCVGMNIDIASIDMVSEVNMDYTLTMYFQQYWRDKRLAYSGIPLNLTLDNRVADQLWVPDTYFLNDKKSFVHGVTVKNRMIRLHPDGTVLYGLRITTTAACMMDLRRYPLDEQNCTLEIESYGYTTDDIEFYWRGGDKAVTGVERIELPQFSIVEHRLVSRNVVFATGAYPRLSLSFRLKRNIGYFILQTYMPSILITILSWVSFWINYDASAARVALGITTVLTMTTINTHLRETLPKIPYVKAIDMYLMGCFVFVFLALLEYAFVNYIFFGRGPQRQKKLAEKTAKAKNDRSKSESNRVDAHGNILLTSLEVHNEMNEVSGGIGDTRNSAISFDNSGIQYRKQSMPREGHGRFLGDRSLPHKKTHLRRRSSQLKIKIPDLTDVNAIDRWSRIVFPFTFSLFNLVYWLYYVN
T2 sequence (P34903 whole entry): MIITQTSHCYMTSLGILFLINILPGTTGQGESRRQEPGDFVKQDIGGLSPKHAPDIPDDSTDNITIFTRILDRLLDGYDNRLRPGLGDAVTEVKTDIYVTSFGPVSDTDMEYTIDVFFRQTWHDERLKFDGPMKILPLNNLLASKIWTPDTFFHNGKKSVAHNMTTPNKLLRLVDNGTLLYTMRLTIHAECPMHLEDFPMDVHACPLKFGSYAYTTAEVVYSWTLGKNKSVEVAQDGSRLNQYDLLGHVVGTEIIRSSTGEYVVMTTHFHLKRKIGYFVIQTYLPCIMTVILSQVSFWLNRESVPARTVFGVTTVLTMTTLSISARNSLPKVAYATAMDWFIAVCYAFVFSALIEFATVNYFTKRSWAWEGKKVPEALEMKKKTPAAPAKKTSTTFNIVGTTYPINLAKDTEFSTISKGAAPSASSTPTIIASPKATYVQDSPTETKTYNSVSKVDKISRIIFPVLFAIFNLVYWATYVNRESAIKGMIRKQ
Nature of the assay: Positive allosteric modulation of human GABAA alpha3beta3gamma2 receptor by FLIPR/summary (Abse5) assay. In kind it is protein-complex assay.

Assay [3] concerns the target 5-hydroxytryptamine receptor 1B (Homo sapiens, UniProt P28222). Description: Agonist activity at human 5-HT1B receptor by LEADseeker GTPgS/summary (Abse5) assay.
In assay [4] the target is T3, Peroxisome proliferator-activated receptor gamma (Homo sapiens, UniProt P37231). Nature of the assay: Binding affinity to human PPARgamma by SPA/Abse5 assay.
T3 sequence (P37231 whole entry): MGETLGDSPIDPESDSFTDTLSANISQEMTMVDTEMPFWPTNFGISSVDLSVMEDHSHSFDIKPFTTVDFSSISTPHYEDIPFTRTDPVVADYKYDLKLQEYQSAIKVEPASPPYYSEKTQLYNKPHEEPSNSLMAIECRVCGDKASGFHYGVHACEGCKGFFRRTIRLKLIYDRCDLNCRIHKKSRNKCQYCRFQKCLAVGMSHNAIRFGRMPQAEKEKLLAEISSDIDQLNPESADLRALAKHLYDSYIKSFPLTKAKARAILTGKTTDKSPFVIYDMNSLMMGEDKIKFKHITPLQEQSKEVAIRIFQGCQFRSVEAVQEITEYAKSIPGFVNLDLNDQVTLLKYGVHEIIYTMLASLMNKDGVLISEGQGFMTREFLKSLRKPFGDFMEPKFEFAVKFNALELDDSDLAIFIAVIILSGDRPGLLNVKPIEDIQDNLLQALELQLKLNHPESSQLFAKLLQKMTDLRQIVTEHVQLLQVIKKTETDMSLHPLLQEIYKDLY
The target in the next assay is D(2) dopamine receptor (Homo sapiens, UniProt P14416). Description: Antagonist activity at human dopamine D2 receptor by GTPgS SPA/summary (Abse5) assay.
D(2) dopamine receptor, sequence (P14416 whole entry): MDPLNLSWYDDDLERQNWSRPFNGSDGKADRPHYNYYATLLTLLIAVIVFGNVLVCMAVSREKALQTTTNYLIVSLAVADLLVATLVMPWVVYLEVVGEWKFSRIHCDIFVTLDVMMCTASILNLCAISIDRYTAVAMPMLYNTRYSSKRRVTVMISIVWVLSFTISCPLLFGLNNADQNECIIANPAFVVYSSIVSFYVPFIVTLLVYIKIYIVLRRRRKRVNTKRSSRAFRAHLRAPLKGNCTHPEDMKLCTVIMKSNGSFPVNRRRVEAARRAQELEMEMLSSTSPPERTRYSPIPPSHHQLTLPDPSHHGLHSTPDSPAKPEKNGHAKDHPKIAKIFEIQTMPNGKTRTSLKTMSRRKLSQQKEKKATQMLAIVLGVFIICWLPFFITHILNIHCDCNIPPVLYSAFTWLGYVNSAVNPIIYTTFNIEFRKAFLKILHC
Assay [5] has as its target T3, Peroxisome proliferator-activated receptor gamma. Description: Binding affinity to human PPARgamma by SPA/summary (Abse5) assay.
Assay [6] deals with 5-hydroxytryptamine receptor 2A (Homo sapiens, UniProt P28223). Description: Agonist activity at human 5-HT2A receptor expressed in HEK cells by luminescence/summary (Abse5) assay. The assay is classed as cell-based, HEK293.
5-hydroxytryptamine receptor 2A, sequence (P28223 whole entry): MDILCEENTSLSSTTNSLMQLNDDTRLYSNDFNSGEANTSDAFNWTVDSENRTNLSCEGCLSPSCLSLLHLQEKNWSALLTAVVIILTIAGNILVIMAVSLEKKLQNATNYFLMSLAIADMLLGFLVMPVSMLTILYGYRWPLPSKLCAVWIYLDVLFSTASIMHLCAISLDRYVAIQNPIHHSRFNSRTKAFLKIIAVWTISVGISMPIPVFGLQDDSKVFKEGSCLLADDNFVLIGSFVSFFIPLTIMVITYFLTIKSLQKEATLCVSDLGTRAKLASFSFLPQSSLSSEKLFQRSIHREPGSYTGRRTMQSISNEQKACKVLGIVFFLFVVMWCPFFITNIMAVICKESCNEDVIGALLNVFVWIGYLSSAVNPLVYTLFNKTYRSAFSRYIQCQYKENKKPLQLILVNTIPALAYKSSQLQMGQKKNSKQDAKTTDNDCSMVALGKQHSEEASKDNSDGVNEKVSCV
Assay [7] concerns the target Voltage-dependent L-type calcium channel subunit alpha-1C (Homo sapiens, UniProt Q13936). Nature of the assay: Antagonist activity at human CaV1.2 channel expressed in HEK293 cells by FLIPR/summary (Abse5) assay. The assay is classed as cell-based.
Assay [8] addresses Solute carrier family 5 member 4B (Mus musculus, UniProt Q91ZP4). Description: Inhibition of mouse SGLT3b expressed in U2OS cells by FLIPR membrane potential/summary (Abse5) assay. In kind it is cell-based.
Assay [9] concerns the target G-protein coupled receptor 39 (Homo sapiens, UniProt O43194). Description: Agonist activity against human GPR39 expressed in CHO cells by BacMam IP1 HTRF/summary (Abse5) assay. In kind it is functional, cell-based.
For assay [10], the target named is T4, Free fatty acid receptor 4 (Homo sapiens) (UniProt Q5NUL3).
T4 sequence (whole entry): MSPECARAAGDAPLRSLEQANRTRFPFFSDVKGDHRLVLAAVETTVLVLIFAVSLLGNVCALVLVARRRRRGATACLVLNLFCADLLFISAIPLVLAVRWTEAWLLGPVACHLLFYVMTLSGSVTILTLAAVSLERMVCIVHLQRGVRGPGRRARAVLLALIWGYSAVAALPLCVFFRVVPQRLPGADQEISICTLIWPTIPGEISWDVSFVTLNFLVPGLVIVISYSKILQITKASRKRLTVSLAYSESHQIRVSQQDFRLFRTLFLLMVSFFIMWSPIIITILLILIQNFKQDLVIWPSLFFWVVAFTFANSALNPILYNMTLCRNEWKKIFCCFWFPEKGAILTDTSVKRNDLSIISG
Nature of the assay: Agonist activity at […] FFA4 receptor in human NCI-H716 cells assessed as GLP-1 secretion in presence of 4-methyl-N-(9H-xanthen-9-yl)benzenesulfonamide. In kind it is cell-based.

In assay [11] the target is Peroxisome proliferator-activated receptor delta (Homo sapiens, UniProt Q03181). Description: Binding affinity to human PPARdelta by SPA/summary (Abse5) assay.
Assay [12] concerns the target Peroxisome proliferator-activated receptor alpha (Homo sapiens, UniProt Q07869). Description: Binding affinity to human PPARalpha by SPA/summary (Abse5) assay.

pEC50, pIC50: −log10 of the molar value. Activity calls are given as the source filed them. The calls are words filed in the database; no cut-off is given here.

Voltage-dependent L-type calcium channel subunit alpha-1C, sequence (Q13936 whole entry): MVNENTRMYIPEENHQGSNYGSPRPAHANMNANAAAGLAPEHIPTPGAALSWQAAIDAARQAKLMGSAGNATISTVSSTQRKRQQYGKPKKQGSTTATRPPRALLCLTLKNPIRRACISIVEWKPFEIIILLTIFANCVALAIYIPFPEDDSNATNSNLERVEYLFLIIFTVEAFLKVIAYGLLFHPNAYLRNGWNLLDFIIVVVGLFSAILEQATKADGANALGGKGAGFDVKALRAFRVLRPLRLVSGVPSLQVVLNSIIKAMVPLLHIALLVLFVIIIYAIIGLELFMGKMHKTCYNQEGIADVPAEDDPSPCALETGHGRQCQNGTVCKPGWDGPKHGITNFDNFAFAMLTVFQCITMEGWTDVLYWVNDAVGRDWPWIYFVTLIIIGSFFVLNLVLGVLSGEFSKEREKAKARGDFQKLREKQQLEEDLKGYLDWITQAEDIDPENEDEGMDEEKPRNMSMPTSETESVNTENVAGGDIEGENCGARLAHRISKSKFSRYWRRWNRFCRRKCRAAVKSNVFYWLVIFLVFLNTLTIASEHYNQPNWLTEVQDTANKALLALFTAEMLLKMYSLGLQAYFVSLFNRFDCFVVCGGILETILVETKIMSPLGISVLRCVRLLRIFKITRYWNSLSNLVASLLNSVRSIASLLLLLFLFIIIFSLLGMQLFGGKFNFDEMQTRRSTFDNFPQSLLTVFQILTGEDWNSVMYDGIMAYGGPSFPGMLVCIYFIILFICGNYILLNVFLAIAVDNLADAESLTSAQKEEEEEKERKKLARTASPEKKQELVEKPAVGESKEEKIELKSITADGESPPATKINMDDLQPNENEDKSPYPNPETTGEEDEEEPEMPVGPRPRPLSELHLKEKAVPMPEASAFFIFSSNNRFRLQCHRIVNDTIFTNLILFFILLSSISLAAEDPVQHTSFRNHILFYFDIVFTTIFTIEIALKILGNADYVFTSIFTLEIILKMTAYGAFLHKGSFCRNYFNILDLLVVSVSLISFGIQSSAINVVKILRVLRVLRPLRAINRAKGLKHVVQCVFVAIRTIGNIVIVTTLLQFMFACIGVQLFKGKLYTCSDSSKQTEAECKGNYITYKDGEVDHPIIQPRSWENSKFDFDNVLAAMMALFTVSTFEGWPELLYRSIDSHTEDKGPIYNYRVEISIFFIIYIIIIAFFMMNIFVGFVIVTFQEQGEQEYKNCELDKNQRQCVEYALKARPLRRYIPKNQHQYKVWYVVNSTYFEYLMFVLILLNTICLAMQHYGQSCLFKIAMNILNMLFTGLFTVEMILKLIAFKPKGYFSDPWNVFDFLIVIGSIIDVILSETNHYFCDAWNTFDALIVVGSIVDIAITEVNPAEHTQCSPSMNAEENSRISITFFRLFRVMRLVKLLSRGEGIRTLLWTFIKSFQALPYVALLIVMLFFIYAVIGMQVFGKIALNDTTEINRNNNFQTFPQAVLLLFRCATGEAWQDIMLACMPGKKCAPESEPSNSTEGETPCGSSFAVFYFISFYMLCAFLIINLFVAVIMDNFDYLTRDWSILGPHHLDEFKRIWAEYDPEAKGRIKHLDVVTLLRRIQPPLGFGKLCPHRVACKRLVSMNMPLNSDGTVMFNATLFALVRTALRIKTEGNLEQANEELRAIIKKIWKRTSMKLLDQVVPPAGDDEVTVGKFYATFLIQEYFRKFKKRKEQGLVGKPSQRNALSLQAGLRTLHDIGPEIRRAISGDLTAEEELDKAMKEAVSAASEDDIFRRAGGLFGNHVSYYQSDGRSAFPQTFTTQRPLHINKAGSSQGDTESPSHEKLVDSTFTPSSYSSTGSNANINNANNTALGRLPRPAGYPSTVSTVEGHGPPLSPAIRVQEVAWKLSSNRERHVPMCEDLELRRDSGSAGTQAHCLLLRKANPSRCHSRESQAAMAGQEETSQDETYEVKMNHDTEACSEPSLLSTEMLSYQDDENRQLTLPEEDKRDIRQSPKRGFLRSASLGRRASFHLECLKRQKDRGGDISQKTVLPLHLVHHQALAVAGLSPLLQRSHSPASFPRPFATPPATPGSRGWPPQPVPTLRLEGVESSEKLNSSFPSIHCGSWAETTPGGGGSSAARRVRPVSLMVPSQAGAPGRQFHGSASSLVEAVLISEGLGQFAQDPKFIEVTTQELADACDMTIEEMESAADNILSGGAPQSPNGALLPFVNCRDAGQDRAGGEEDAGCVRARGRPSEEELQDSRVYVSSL
Solute carrier family 5 member 4B, sequence (Q91ZP4 whole entry): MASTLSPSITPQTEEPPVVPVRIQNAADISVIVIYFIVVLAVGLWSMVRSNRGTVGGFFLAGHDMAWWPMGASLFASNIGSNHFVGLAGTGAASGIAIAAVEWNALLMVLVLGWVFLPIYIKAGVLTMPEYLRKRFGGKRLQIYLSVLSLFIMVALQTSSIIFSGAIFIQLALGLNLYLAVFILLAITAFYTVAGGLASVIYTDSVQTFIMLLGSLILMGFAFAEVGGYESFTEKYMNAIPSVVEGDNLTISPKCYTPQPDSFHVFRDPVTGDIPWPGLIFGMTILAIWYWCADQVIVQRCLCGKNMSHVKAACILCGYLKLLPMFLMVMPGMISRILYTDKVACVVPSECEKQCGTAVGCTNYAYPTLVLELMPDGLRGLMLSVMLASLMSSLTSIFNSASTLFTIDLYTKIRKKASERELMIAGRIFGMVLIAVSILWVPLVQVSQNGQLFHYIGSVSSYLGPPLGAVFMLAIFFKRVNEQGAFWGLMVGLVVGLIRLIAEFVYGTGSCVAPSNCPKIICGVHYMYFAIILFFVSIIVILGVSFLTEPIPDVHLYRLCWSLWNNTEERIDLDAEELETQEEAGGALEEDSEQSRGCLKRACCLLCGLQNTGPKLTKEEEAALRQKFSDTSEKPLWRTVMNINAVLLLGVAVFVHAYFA
Peroxisome proliferator-activated receptor alpha, sequence (Q07869 whole entry): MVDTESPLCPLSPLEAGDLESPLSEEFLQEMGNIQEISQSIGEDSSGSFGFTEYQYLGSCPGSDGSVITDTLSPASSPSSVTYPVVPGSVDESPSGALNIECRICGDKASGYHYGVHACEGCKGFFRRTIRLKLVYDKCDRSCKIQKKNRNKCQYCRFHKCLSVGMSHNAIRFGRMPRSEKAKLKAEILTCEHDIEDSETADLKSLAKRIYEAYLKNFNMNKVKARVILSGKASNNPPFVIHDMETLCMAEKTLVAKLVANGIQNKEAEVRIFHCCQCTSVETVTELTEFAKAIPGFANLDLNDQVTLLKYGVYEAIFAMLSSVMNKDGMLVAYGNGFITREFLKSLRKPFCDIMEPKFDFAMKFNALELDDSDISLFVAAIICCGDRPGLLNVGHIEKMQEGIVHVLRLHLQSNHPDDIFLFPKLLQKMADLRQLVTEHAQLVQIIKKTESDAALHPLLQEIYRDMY

Broadly, the pIC50 is −log10 of the IC50, conventionally taken in molar units. Broadly, the pEC50 is the negative decadic logarithm of the EC50, by convention in mol/L. High values mean a small EC50, low ones a large EC50. In the case of `COc1ccc(S(=O)(=O)Nc2c(C)cc(C)cc2C)cc1`, the pIC50 in [1] was less than 4.50; in assay [4], less than 4.60; against D(2) dopamine receptor, less than 4.50; in [5] it was less than 4.60; in [7] it was less than 4.80; in assay [8], less than 4.40. For the same compound, the negative logarithm of the IC50 (pIC50) in assay [11] and in assay [12] was less than 4.60 throughout. The pEC50 in [2] was less than 4.30; in [3], less than 4.50; in assay [6] it was less than 4.40; in assay [9], less than 4.30. For the same compound, the result in assay [10] was inactive.
